Test results taken from patent US20240100473A1, “CARBON DIOXIDE ABSORBER” (MITSUBISHI GAS CHEMICAL COMPANY, INC., priority 2021, published 2024).

Columns and labels:
[1] = Evaluation of absorbed amount of carbon dioxide from air (desiccator); conditions: 5 mmol amine compound in desiccator, air 23° C. and 50% RH, initial CO2 about 400 ppm, after 24 hours
Procedure: (Evaluation of Absorbed Amount of Carbon Dioxide from Air)
A carbon dioxide concentration meter and a petri dish were placed inside an openable desiccator (Internal Dimension: 370 mm×260 mm×272 mm). The amine compound (5 mmol) was then added to the petri dish in the desiccator, a door was immediately closed, and the carbon dioxide concentration in the desiccator was measured over time for 24 hours under an air environment of 23° C. and 50% RH. The initial concentration of carbon dioxide was adjusted to about 400 ppm. Changes of the carbon dioxide concentration in the desiccator 24 hours after the amine compound was placed in the desiccator are shown in Table 1. Here, it is meant that the greater the change of the carbon dioxide concentration in the desiccator is, the greater the amount of the carbon dioxide absorbed by the carbon dioxide absorbent is.

[2] = Maximum carbon dioxide release temperature of amine compound (DSC); type: physicochemical; conditions: amine compound with CO2 absorbed from air for 24 h; DSC 23 to 250° C., 10° C./min, nitrogen atmosphere
Procedure: The amine compound (A) is heated with carbon dioxide absorbed from 23° C. to 250° C. at 10° C./minute of a heating rate, and a temperature at which an endothermic amount associated with desorption of carbon dioxide reaches a maximum is measured, and this temperature is taken as the maximum carbon dioxide release temperature. Here, the amine compound (A) with carbon dioxide absorbed can be prepared, for example, by allowing 5 mmol of the amine compound (A) to stand in the air at 23° C. and 50% RH for 24 hours.
(Maximum Carbon Dioxide (CO2) Release Temperature of Amine Compound)
After the above evaluation of the absorbed amount of carbon dioxide from the air was completed, the amine compound was removed from the desiccator as the amine compound having carbon dioxide absorbed. The DSC measurement was performed on the amine compound with carbon dioxide absorbed as follows, to measure the maximum carbon dioxide release temperature of the amine compound. First, the differential scanning calorimetry was performed on the amine compound using the differential thermogravimetric analyzer (Product Name: DTG-60 produced by Shimadzu Corporation) under the conditions of 23 to 250° C. of a measurement temperature range, 10° C./min of the heating rate, and the nitrogen atmosphere. From the DSC curve obtained thereby, the temperature at which the endothermic amount associated with the desorption of carbon dioxide reached the maximum was calculated, and the temperature thereof was used as the maximum carbon dioxide release temperature of the amine compound.

[3] = Amine value of amine compound (JIS K7237-1995 titration); type: physicochemical; conditions: 0.1 g in 20 mL acetic acid, titrated with 0.1 N perchloric acid-acetic acid
Procedure: The amine value can be measured by the following method in accordance with JIS K7237-1995. • (1) Dissolving 0.1 g of the amine compound (A) in 20 mL of acetic acid. • (2) Calculating the amine value by titrating the solution obtained in the above (1) with the 0.1 N perchloric acid-acetic acid solution using the automatic potentiometric titrator (for example, AT-610 produced by Kyoto Electronics Manufacturing Co., Ltd.).
(Amine Value of Amine Compound)
The amine value was measured by the following measurement method in accordance with JIS K7237-1995. • (1) Dissolving 0.1 g of the amine compound in 20 mL of the acetic acid. • (2) Calculating the amine value by titrating the solution obtained in the above (1) with the 0.1 N perchloric acid-acetic acid solution using the automatic potentiometric titrator (AT-610 produced by Kyoto Electronics Manufacturing Co., Ltd.).

[4] = Acid dissociation constant (pKa) by acid-base titration; type: physicochemical; conditions: 0.2 g in 30 mL purified water, 25±2° C.
Procedure: In the present embodiments, the acid dissociation constant of the amine compound (A) is a value obtained by the following measurement method based on an acid-base titration method. • (1) Dissolving 0.2 g of the amine compound (A) in 30 mL of purified water. • (2) Calculating the acid dissociation constant (pKa) by titrating the solution obtained in the above (1) with 0.1 N perchloric acid-acetic acid solution using an automatic potentiometric titrator (for example, AT-610 produced by Kyoto Electronics Manufacturing Co., Ltd.).
(Acid Dissociation Constant (pKa) of Amine Compound)
The acid dissociation constant of the amine compound was determined by the following method. • (1) Dissolving 0.2 g of the amine compound in 30 mL of the purified water. • (2) Calculating the acid dissociation constant (pKa) by titrating the solution obtained in the above (1) with the 0.1 N perchloric acid-acetic acid solution using the automatic potentiometric titrator (AT-610 produced by Kyoto Electronics Manufacturing Co., Ltd.).
Still, let the temperature at the time of measurement be 25±2° C.

[5] = Maximum endothermic temperature of amine compound (DSC); type: physicochemical; conditions: DSC 23 to 350° C., 10° C./min, nitrogen atmosphere; volatilization of amine compound
Procedure: Heating the amine compound (A) from 23° C. to 350° C. at 10° C./minute of the heating rate, measuring a temperature at which an endothermic amount associated with the volatilization of the amine compound (A) reaches a maximum, and letting this temperature be the maximum endothermic temperature of the amine compound (A).
(Maximum Endothermic Temperature of Amine Compound)
DSC measurements were performed on the amine compounds used in Examples and Comparative Examples to measure the maximum endothermic temperature of the amine compounds as follows. First, a differential scanning calorimetry was performed on the amine compounds using a differential thermogravimetric analyzer (Product Name: DTG-60 produced by Shimadzu Corporation) under conditions of 23 to 350° C. of a measurement temperature range, 10° C./min of a heating rate, and a nitrogen atmosphere. From the DSC curve obtained thereby, the temperature at which the endothermic amount associated with the volatilization of the amine compound reached the maximum was calculated, and the temperature thereof was used as the maximum endothermic temperature of the amine compound.

SMILES	Maximum CO2 Release Temperature [2]	Amine Value [3]	pKa [4]	Maximum Endothermic Temperature [5]	Evaluation of CO2 Absorbed Amount: Changes of CO2 Concentration, 24h [1]
NCC1CCOCC1 [Example 3, 4-aminomethyltetrahydropyran]	111.0 °C	487 mgKOH/g	10	127.4 °C	389 ppm
NCCNCCN [Comparative Example 2, Diethylenetriamine, reference compound]	127.8 °C	1632 mgKOH/g	9.7	127.8 °C	300 ppm
Cc1ccc(CN)o1 [Example 7, 5-methylfurfurylamine]	80.7 °C	505 mgKOH/g	9.2	115.3 °C	226 ppm
NCCN1CCOCC1 [Example 4, 4-(2-aminoethyl)morpholine]	81.5 °C	862 mgKOH/g	10.1	145.0 °C	400 ppm
NCc1cccs1 [Example 5, 2-thiophenemethylamine]	83.6 °C	496 mgKOH/g	9.5	140.1 °C	249 ppm
NCC1CCC(CN)O1 (stereo not drawn) [Example 1, 2,5-bis(aminomethyl)tetrahydrofuran]	80.3 °C	862 mgKOH/g	9.4	155.9 °C	300 ppm

Continued, in another order:

Maximum CO2 Release Temperature [2]	Amine Value [3]	pKa [4]	Maximum Endothermic Temperature [5]	SMILES	Evaluation of CO2 Absorbed Amount: Changes of CO2 Concentration, 24h [1]
85.0 °C	890 mgKOH/g	9	154.2 °C	NCc1ccc(CN)o1 [Example 2, 2,5-bisaminomethylfuran]	306 ppm
66.7 °C	578 mgKOH/g	9.2	92.4 °C	NCc1ccco1 [Example 6, Furfurylamine]	188 ppm
135.5 °C	824 mgKOH/g	9.5	183.5 °C	NCc1cccc(CN)c1 [Comparative Example 1, Meta-xylylenediamine, reference compound]	329 ppm
